From ChEMBL document CHEMBL1201862, “PubChem BioAssay data set” (2004)
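Grown in 96-well plates, cells were treated for 48 hours with each compound at five concentrations. Insufficient inhibition: endpoint recorded as highest concentration tested. Abbreviation: GI50, concentration required for 50% inhibition of growth.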 Active and inactive are the calls of the source. No stated cut-off is given here; in the data, active = GI50 up to about 1.1 µM and inactive = higher.

How the values were obtained:
Experiment in all cases: growth of human tumour cells (NCI), 48 h
786-0 = tested on: 786-0
A498 = tested on: A498
A549 = tested on: A549
ACHN = tested on: ACHN
BT-549 = tested on: BT-549
CAKI-1 = tested on: CAKI-1
CCRF-CEM = tested on: CCRF-CEM
COLO 205 = tested on: COLO 205
DU-145 = tested on: DU-145
EKVX = tested on: EKVX
HCT-116 = tested on: HCT-116
HCT-15 = tested on: HCT-15
HL-60 = tested on: HL-60
HOP-62 = tested on: HOP-62
HOP-92 = tested on: HOP-92
HT-29 = tested on: HT-29
Hs-578T = tested on: Hs-578T
IGROV-1 = tested on: IGROV-1
K562 = tested on: K562
KM12 = tested on: KM12
LOX IMVI = tested on: LOX IMVI
M14 = tested on: M14
MCF7 = tested on: MCF7
MDA-MB-231 = tested on: MDA-MB-231
MDA-MB-435 = tested on: MDA-MB-435
MDA-N = tested on: MDA-N
MOLT-4 = tested on: MOLT-4
Malme-3M = tested on: Malme-3M
NCI-H23 = tested on: NCI-H23
NCI-H460 = tested on: NCI-H460
NCI-H522 = tested on: NCI-H522
NCI/ADR-RES = tested on: NCI/ADR-RES
OVCAR-3 = tested on: OVCAR-3
OVCAR-4 = tested on: OVCAR-4
OVCAR-5 = tested on: OVCAR-5
OVCAR-8 = tested on: OVCAR-8
PC-3 = tested on: PC-3
RPMI-8226 = tested on: RPMI-8226
RXF 393 = tested on: RXF 393
SF-268 = tested on: SF-268
SF-295 = tested on: SF-295
SK-MEL-28 = tested on: SK-MEL-28
SK-MEL-2 = tested on: SK-MEL-2
SK-MEL-5 = tested on: SK-MEL-5
SK-OV-3 = tested on: SK-OV-3
SN12C = tested on: SN12C
SNB-19 = tested on: SNB-19
SNB-75 = tested on: SNB-75
SR = tested on: SR
SW-620 = tested on: SW-620
T47D = tested on: T47D
TK-10 = tested on: TK-10
U-251 = tested on: U-251
UACC-257 = tested on: UACC-257
UACC-62 = tested on: UACC-62
UO-31 = tested on: UO-31
HCC 2998 = tested on: HCC 2998
NCI-H226 = tested on: NCI-H226

C=C(Br)CN(C)CC(=C)Br
GI50 (786-0): > 100 µM (inactive) | GI50 (A498): > 100 µM (inactive) | GI50 (A549): > 100 µM (inactive) | GI50 (ACHN): > 100 µM (inactive) | GI50 (BT-549): > 100 µM (inactive) | GI50 (CAKI-1): > 100 µM (inactive) | GI50 (CCRF-CEM): > 100 µM (inactive) | GI50 (COLO 205): > 100 µM (inactive) | GI50 (DU-145): > 100 µM (inactive) | GI50 (EKVX): > 100 µM (inactive) | GI50 (HCT-116): > 100 µM (inactive) | GI50 (HCT-15): > 100 µM | GI50 (HL-60): > 100 µM (inactive) | GI50 (HOP-62): > 100 µM (inactive) | GI50 (HOP-92): > 100 µM (inactive) | GI50 (HT-29): > 100 µM (inactive) | GI50 (Hs-578T): > 100 µM (inactive) | GI50 (IGROV-1): > 100 µM (inactive) | GI50 (K562): > 100 µM (inactive) | GI50 (KM12): > 100 µM (inactive) | GI50 (LOX IMVI): > 100 µM (inactive) | GI50 (M14): > 100 µM (inactive) | GI50 (MCF7): > 100 µM (inactive) | GI50 (MDA-MB-231): > 100 µM (inactive) | GI50 (MDA-MB-435): > 100 µM (inactive) | GI50 (MDA-N): > 100 µM (inactive) | GI50 (MOLT-4): > 100 µM (inactive) | GI50 (Malme-3M): > 100 µM (inactive) | GI50 (NCI-H23): > 100 µM (inactive) | GI50 (NCI-H460): > 100 µM (inactive) | GI50 (NCI-H522): > 100 µM (inactive) | GI50 (NCI/ADR-RES): > 100 µM (inactive) | GI50 (OVCAR-3): > 100 µM (inactive) | GI50 (OVCAR-4): > 100 µM (inactive) | GI50 (OVCAR-5): > 100 µM (inactive) | GI50 (OVCAR-8): > 100 µM (inactive) | GI50 (PC-3): > 100 µM (inactive) | GI50 (RPMI-8226): > 100 µM (inactive) | GI50 (RXF 393): > 100 µM (inactive) | GI50 (SF-268): > 100 µM (inactive) | GI50 (SF-295): > 100 µM (inactive) | GI50 (SK-MEL-28): > 100 µM (inactive) | GI50 (SK-MEL-2): > 100 µM (inactive) | GI50 (SK-MEL-5): > 100 µM (inactive) | GI50 (SK-OV-3): > 100 µM (inactive) | GI50 (SN12C): > 100 µM (inactive) | GI50 (SNB-19): > 100 µM (inactive) | GI50 (SNB-75): > 100 µM (inactive) | GI50 (SR): > 100 µM (inactive) | GI50 (SW-620): > 100 µM (inactive) | GI50 (T47D): > 100 µM (inactive) | GI50 (TK-10): 50.1 µM (inactive) | GI50 (U-251): > 100 µM (inactive) | GI50 (UACC-257): > 100 µM (inactive) | GI50 (UACC-62): > 100 µM (inactive) | GI50 (UO-31): > 100 µM (inactive)

CC(=O)OCC1OC(Nc2ccc3nc(C)n(-c4ccccc4)c(=O)c3c2)C(OC(C)=O)C(OC(C)=O)C1OC(C)=O (centres undefined)
GI50 (786-0): > 50 µM (inactive) | GI50 (A498): > 50 µM (inactive) | GI50 (ACHN): > 50 µM (inactive) | GI50 (BT-549): > 50 µM (inactive) | GI50 (CAKI-1): > 50 µM (inactive) | GI50 (COLO 205): > 50 µM (inactive) | GI50 (DU-145): > 50 µM (inactive) | GI50 (EKVX): > 50 µM (inactive) | GI50 (HCC 2998): > 50 µM (inactive) | GI50 (HCT-116): > 50 µM (inactive) | GI50 (HCT-15): > 50 µM | GI50 (HL-60): 23.7 µM (inactive) | GI50 (HOP-62): > 50 µM (inactive) | GI50 (HT-29): > 50 µM (inactive) | GI50 (Hs-578T): > 50 µM (inactive) | GI50 (IGROV-1): > 50 µM (inactive) | GI50 (K562): 32.1 µM (inactive) | GI50 (KM12): > 50 µM (inactive) | GI50 (LOX IMVI): 42.8 µM (inactive) | GI50 (MCF7): > 50 µM (inactive) | GI50 (MDA-MB-231): > 50 µM (inactive) | GI50 (MDA-MB-435): > 50 µM (inactive) | GI50 (MDA-N): > 50 µM (inactive) | GI50 (MOLT-4): > 50 µM (inactive) | GI50 (Malme-3M): > 50 µM (inactive) | GI50 (NCI-H226): > 50 µM (inactive) | GI50 (NCI-H23): > 50 µM (inactive) | GI50 (NCI-H460): 15.5 µM (inactive) | GI50 (NCI-H522): > 50 µM (inactive) | GI50 (NCI/ADR-RES): > 50 µM (inactive) | GI50 (OVCAR-3): > 50 µM (inactive) | GI50 (OVCAR-4): > 50 µM (inactive) | GI50 (OVCAR-5): > 50 µM (inactive) | GI50 (OVCAR-8): > 50 µM (inactive) | GI50 (PC-3): > 50 µM (inactive) | GI50 (RPMI-8226): 5.61 µM (inactive) | GI50 (RXF 393): > 50 µM (inactive) | GI50 (SF-268): > 50 µM (inactive) | GI50 (SF-295): > 50 µM (inactive) | GI50 (SK-MEL-28): > 50 µM (inactive) | GI50 (SK-MEL-2): > 50 µM (inactive) | GI50 (SK-MEL-5): > 50 µM (inactive) | GI50 (SN12C): > 50 µM (inactive) | GI50 (SNB-19): > 50 µM (inactive) | GI50 (SNB-75): > 50 µM (inactive) | GI50 (SR): 24.1 µM (inactive) | GI50 (SW-620): > 50 µM (inactive) | GI50 (T47D): > 50 µM (inactive) | GI50 (TK-10): > 50 µM (inactive) | GI50 (U-251): > 50 µM (inactive) | GI50 (UACC-257): > 50 µM (inactive) | GI50 (UACC-62): 41.3 µM (inactive) | GI50 (UO-31): > 50 µM (inactive)
